We go through 29 compounds from patent US20180072997A1, “INHIBITORS OF HUMAN IMMUNODEFICIENCY VIRUS REPLICATION” (ViiV HEATHCARE UK (NO.5) LIMITED, priority 2015, published 2018).

Series [1] is described as follows: Compound cytotoxicity, XTT-based colorimetric assay. The class given is cell-based. The following applies: human, uninfected MT2 cells, day 4, XTT. As for the experimental part: Compound cytotoxicity and the corresponding CC50 values were determined using the same protocol as described in the antiviral assay except that uninfected cells were used. Cytotoxicity was assessed on day 4 in uninfected MT2 cells by using a XTT (2,3-bis[2-Methoxy-4-nitro-5-sulfophenyl]-2H-tetrazolium-5-carboxyanilide inner salt)-based colorimetric assay (Sigma-Aldrich, St Louis, Mo.).
For orientation: Formazan colour is commonly taken as a measure of viable cells.

Series [2] concerns recombinant NL4-3 virus (Renilla luciferase in nef) in MT-2 cells. Description: whole plant or invertebrate. The class given is cell-based, HIV. The following applies: Renilla, NL43, MT-2 cells infected for 4-5 days with recombinant NL4-3 Renilla luciferase virus; luciferase activity. How it is done: HIV cell culture assay—MT-2 cells, 293T cells and the proviral DNA clone of NL4-3 virus were obtained from the NIH AIDS Research and Reference Reagent Program. MT-2 cells were propagated in RPMI 1640 media supplemented with 10% heat inactivated fetal bovine serum (FBS), 100 μg/ml penicillin G and up to 100 units/mL streptomycin. The 293T cells were propagated in DMEM media supplemented with 10% heat inactivated FBS, 100 μg/mL penicillin G and 100 μg/mL streptomycin. A recombinant NL4-3 proviral clone, in which a section of the nef gene was replaced with the Renilla luciferase gene, was used to make the reference virus used in these studies. The recombinant virus was prepared through transfection of the recombinant NL4-3 proviral clone into 293T cells using Transit-293 Transfection Reagent from Mirus Bio LLC (Madison, Wis.). Supernatent was harvested after 2-3 days and the amount of virus present was titered in MT-2 cells using luciferase enzyme activity as a marker by measuring luciferase enzyme activity. Luciferase was quantitated using the EnduRen Live Cell Substrate from Promega (Madison, Wis.). Antiviral activities of compounds toward the recombinant virus were quantified by measuring luciferase activity in MT-2 cells infected for 4-5 days with the recombinant virus in the presence of serial dilutions of the compound.
(Johnson V A, Byington R T. Infectivity Assay. In Techniques in HIV Research. ed. Aldovini A, Walker BD. 71-76. New York: Stockton Press.1990).

Each structure is given as a SMILES string. Some results are limits rather than exact numbers.

As usually defined, the CC50 is the concentration that lowers cell viability or growth by half. Low readings indicate greater toxicity to the cells, high ones lower toxicity to the cells. One may read the EC50 as the midpoint of the concentration-response curve. On to `COc1ccc(N(C)C(=O)[C@H](Cc2ccccc2)NC(=O)COc2nc3ccccc3n(CC(=O)N[C@@H](Cc3ccccc3)C(=O)N(C)c3ccc(OC)cc3)c2=O)cc1` [Example 95], for which, in series [1], the half-maximal cytotoxic concentration (CC50) at 4 days is no less than 50 µM. The half-maximal effective concentration (EC50) in series [2] was determined as 0.21 µM.
Regarding `COc1ccc(N(C)C(=O)[C@H](Cc2ccccc2)NC(=O)Cn2c(=O)n(CC(=O)N[C@@H](Cc3ccccc3)C(=O)N(C)c3ccc(OC)cc3)c3ccccc32)cc1` [Example 37], the half-maximal cytotoxic concentration (CC50) at 4 days in series [1] is 19.9 µM. Also, the EC50 in series [2] is 0.07 µM.
For `C=CCN(C(=O)[C@H](Cc1cc(F)cc(F)c1)NS(=O)(=O)CS(=O)(=O)N[C@@H](Cc1cc(F)cc(F)c1)C(=O)N(CC=C)c1ccc(OC)cc1)c1ccc(OC)cc1` [Example 163], the CC50 at 4 days in series [1] was no less than 100 µM. Moreover, the EC50 in series [2] was 2.56 µM.
In series [1], `Cc1ccc(N(C)C(=O)[C@H](Cc2cc(F)cc(F)c2)NC(=O)NS(=O)(=O)N[C@@H](Cc2cc(F)cc(F)c2)C(=O)N(C)c2ccc(C)cn2)nc1` [Example 182] showed a CC50 at 4 days of 97.9 µM. The concentration for a half-maximal effect (EC50) in series [2] came out at 0.4 µM.
The compound `Cc1cc(F)cc(N(C)C(=O)[C@H](Cc2ccccc2)NC(=O)NS(=O)(=O)N[C@@H](Cc2ccccc2)C(=O)N(C)c2cc(C)cc(F)c2)c1` [Example 224] had a CC50 at 4 days in series [1] of 46 µM. Moreover, in series [2], the concentration giving a half-maximal response (EC50) came out at 3.91 µM.
On to `C=CCN(C(=O)[C@H](Cc1cc(F)cc(F)c1)NC(=O)CCC(=O)N[C@@H](Cc1cc(F)cc(F)c1)C(=O)N(CC=C)c1ccc(OC)cc1)c1ccc(OC)cc1` [Example 170], for which the 50% cytotoxic concentration (CC50) at 4 days in series [1] was 28.4 µM. For the same compound, the EC50 in series [2] was found to be 7.66 µM.
For the compound `C=CCN(C(=O)[C@H](Cc1cc(F)cc(F)c1)NC(=O)c1ccccc1S(=O)(=O)N[C@@H](Cc1cc(F)cc(F)c1)C(=O)N(CC=C)c1ccc(OC)cc1)c1ccc(OC)cc1` [Example 210], the CC50 at 4 days in series [1] was no less than 100 µM. Also, the concentration giving a half-maximal response (EC50) in series [2] is 10.1 µM.
For `COc1ccc(N(C)C(=O)[C@H](Cc2cc(F)cc(F)c2)NC(=O)Cc2cccc(CC(=O)N[C@@H](Cc3cc(F)cc(F)c3)C(=O)N(C)c3ccc(OC)cc3)c2)cc1` [Example 43], the 50% cytotoxic concentration (CC50) at 4 days in series [1] stood at 3.7 µM. Besides, the EC50 in series [2] worked out at 0.48 µM.
In turn, `Cc1cc(C(=O)N[C@@H](Cc2cc(F)cc(F)c2)C(=O)N(C)c2ccc3scnc3c2)cc(C(=O)N[C@@H](Cc2cc(F)cc(F)c2)C(=O)N(C)c2ccc3scnc3c2)c1` [Example 127] displayed a 50% cytotoxic concentration (CC50) at 4 days in series [1] of 3.8 µM. The half-maximal effective concentration (EC50) in series [2] amounted to 0.01 µM.
Turning to `CN(C(=O)[C@H](Cc1cc(F)cc(F)c1)NC(=O)NS(=O)(=O)N[C@@H](Cc1cc(F)cc(F)c1)C(=O)N(C)c1ccccc1)c1ccccc1` [Example 86], the cytotoxic concentration (CC50) at 4 days in series [1] is 24.5 µM. Also, the EC50 in series [2] was determined as 0.09 µM.
On to `COc1ccc(N(C)C(=O)[C@H](Cc2cc(F)cc(F)c2)NC(=O)CS(=O)(=O)N[C@@H](Cc2cc(F)cc(F)c2)C(=O)N(C)c2ccc(OC)cc2)cc1` [Example 64], for which, in series [1], the 50% cytotoxic concentration (CC50) at 4 days amounted to 11.3 µM. In series [2], the EC50 turned out to be 0.38 µM.
Regarding `CCN(C(=O)[C@H](Cc1cc(F)cc(F)c1)NC(=O)NS(=O)(=O)N[C@@H](Cc1cc(F)cc(F)c1)C(=O)N(CC)c1ccc2scnc2c1)c1ccc2scnc2c1` [Example 152], it took 99.3 µM to reach half-maximal cytotoxicity in series [1] (CC50 at 4 days). Also, in series [2], the concentration giving a half-maximal response (EC50) was determined as 0.06 µM.
Take `COc1ccc(N(C)C(=O)[C@H](Cc2ccccc2)NC(=O)CCC(=O)N[C@@H](Cc2ccccc2)C(=O)N(C)c2ccc(OC)cc2)cc1` [Example 21]: half-maximal cytotoxicity in series [1] (CC50 at 4 days) was put at 27 µM. For the same compound, in series [2], the EC50 is 3.25 µM.
In the same order, the values of `COc1ccc(-n2ccnc2C(Cc2ccccc2)NC(=O)NS(=O)(=O)N[C@@H](Cc2ccccc2)c2nccn2-c2ccc(OC)cc2)cc1` (stereo partly shown) [Example 159] are 86.4 µM and 3.68 µM.
With `COc1ccc(N(C)C(=O)[C@H](Cc2ccccc2)Nc2ccnc(N[C@@H](Cc3ccccc3)C(=O)N(C)c3ccc(OC)cc3)n2)cc1` [Example 145], half-maximal cytotoxicity in series [1] (CC50 at 4 days) was put at 19.1 µM. In addition, the EC50 in series [2] worked out at 12 µM.
In the same order, the values of `Cc1cc(N(C)C(=O)[C@H](Cc2cc(F)cc(F)c2)NC(=O)NS(=O)(=O)N[C@@H](Cc2cc(F)cc(F)c2)C(=O)N(C)c2cnc(C)c(C)c2)cnc1C` [Example 235] are no less than 100 µM and 7 µM.
`COc1ccc(N(C)C(=O)[C@H](Cc2cc(F)cc(F)c2)NC(=O)c2ccc(F)c(C(=O)N[C@@H](Cc3cc(F)cc(F)c3)C(=O)N(C)c3ccc(OC)nc3)c2)cn1` [Example 196]: in series [1], the CC50 at 4 days is no less than 100 µM. The concentration for a half-maximal effect (EC50) in series [2] stood at 0.37 µM.
In turn, `CCCN(C(=O)[C@H](Cc1cc(F)cc(F)c1)NC(=O)NS(=O)(=O)N[C@@H](Cc1cc(F)cc(F)c1)C(=O)N(CCC)c1ccc2nccnc2c1)c1ccc2nccnc2c1` [Example 204] displayed a CC50 at 4 days in series [1] of no less than 33.3 µM. Moreover, the concentration for a half-maximal effect (EC50) in series [2] turned out to be 15 µM.
The compound `COc1ccc(NC(=O)[C@H](Cc2ccccc2)NS(=O)(=O)NC(=O)N[C@@H](Cc2ccccc2)C(=O)N(C)c2ccc(OC)cc2)cc1` [Example 12] had a CC50 at 4 days in series [1] of 29 µM. The concentration for a half-maximal effect (EC50) in series [2] was 12.4 µM.
For `CN(C(=O)[C@H](Cc1cc(F)cc(F)c1)NC(=O)NS(=O)(=O)N[C@@H](Cc1cc(F)cc(F)c1)C(=O)N(C)c1ccc(F)c(F)c1)c1ccc(F)c(F)c1` [Example 215], in series [1], half-maximal cytotoxicity (CC50 at 4 days) was put at 34.5 µM. Besides, in series [2], the EC50 came out at 0.31 µM.
In the case of `COc1ccc(N(CCF)C(=O)[C@H](Cc2cc(F)cc(F)c2)NC(=O)Cn2c(=O)n(CC(=O)N[C@@H](Cc3cc(F)cc(F)c3)C(=O)N(CCF)c3ccc(OC)cc3)c3ccccc32)cc1` [Example 125], in series [1], the CC50 at 4 days is no less than 100 µM. In addition, the EC50 in series [2] was 0.34 µM.
The corresponding values for `COc1ccc(N(C)C(=O)[C@H](Cc2cc(F)cc(F)c2)Nc2ccnc(N[C@@H](Cc3cc(F)cc(F)c3)C(=O)N(C)c3ccc(OC)cc3)n2)cc1` [Example 158] are 12.4 µM and 9.53 µM.
The compound `C=CCCN(C(=O)[C@H](Cc1cc(F)cc(F)c1)NC(=O)NS(=O)(=O)N[C@@H](Cc1cc(F)cc(F)c1)C(=O)N(CC=C)c1ccc(OC)cc1)c1ccc(OC)cc1` [Example 138] returned a CC50 at 4 days in series [1] of 12.9 µM. Further, the concentration giving a half-maximal response (EC50) in series [2] was 0.26 µM.
In series [1], `CN(C(=O)[C@H](Cc1cc(F)cc(F)c1)NC(=O)c1cncc(C(=O)N[C@@H](Cc2cc(F)cc(F)c2)C(=O)N(C)c2ccc3scnc3c2)c1)c1ccc2scnc2c1` [Example 129] displayed a CC50 at 4 days of 5.3 µM. In addition, in series [2], the EC50 amounted to 0.01 µM.
On to `O=C(N[C@@H](Cc1cc(F)cc(F)c1)c1ncccc1Br)NS(=O)(=O)N[C@@H](Cc1cc(F)cc(F)c1)c1ncccc1Br` [Example 36], for which the 50% cytotoxic concentration (CC50) at 4 days in series [1] turned out to be 65.3 µM. In addition, in series [2], the 50% effective concentration (EC50) was 7.27 µM.
In series [1], `COc1ccc(N(C)C(=O)[C@H](Cc2ccccc2)NC(=O)CC(=O)N[C@@H](Cc2ccccc2)C(=O)N(C)c2ccc(OC)cc2)cc1` [Example 3] displayed a half-maximal cytotoxic concentration (CC50) at 4 days of 70.9 µM. In series [2], the EC50 worked out at 1.94 µM.
For the compound `CN(C(=O)[C@H](Cc1cc(F)cc(F)c1)NC(=O)c1c(F)c(F)c(F)c(C(=O)N[C@@H](Cc2cc(F)cc(F)c2)C(=O)N(C)c2ccc3scnc3c2)c1F)c1ccc2scnc2c1` [Example 81], in series [1], the CC50 at 4 days worked out at 2.8 µM.
Take `CN(C(=O)[C@H](Cc1cc(F)cc(F)c1)NC(=O)CN1c2ccccc2N(CC(=O)N[C@@H](Cc2cc(F)cc(F)c2)C(=O)N(C)c2ccc3scnc3c2)S1(=O)=O)c1ccc2scnc2c1` [Example 118]: the CC50 at 4 days in series [1] is no less than 100 µM.
Regarding `CCc1ccc(N(C)C(=O)[C@H](Cc2cc(F)cc(F)c2)NC(=O)NS(=O)(=O)N[C@@H](Cc2cc(F)cc(F)c2)C(=O)N(C)c2ccc(CC)cc2)cc1` [Example 173], the midpoint of cytotoxicity in series [1], the CC50 at 4 days, lay at 25.5 µM.
